The source of these data is patent US4098782A, “(His^5)-somatostatin and analogues thereof” (American Home Products Corporation, priority 1977, dated 1978).

What all share (assay type): in vivo
In one assay the test system is growth hormone. Put plainly: Arginine-stimulated growth hormone secretion in Nembutal-anesthetized rats. To be noted: for GH: albino male rats, blood 15 min after dose (5 min after arginine), control 288 ± 30, * = p < 0.01. The protocol: (§1) Albino male rats were administered Nembutal intraperitoneally at a dose of 50 milligrams per kilogram. Fifteen minutes later a subcutaneous injection of the test compound or physiological saline was administered. Ten minutes later 0.5 milliliters of arginine (300 milligrams per milliliter, pH 7.2) is injected into the heart. Five minutes after receipt of the arginine the rats are decapitated and blood is collected into trasylol-EDTA. An appropriate aliquot was assayed for growth hormone, insulin and glucagon.

The test system of the next assay is insulin. Put plainly: Arginine-stimulated insulin secretion in Nembutal-anesthetized rats. To be noted: for Insulin: albino male rats, blood 15 min after dose (5 min after arginine), control 372 ± 47. The protocol:
as §1

In the next assay the test system is glucagon. As to the kind of experiment: Arginine-stimulated glucagon secretion in Nembutal-anesthetized rats. To be noted: for Glucagon: albino male rats, blood 15 min after dose (5 min after arginine), control 51 ± 4, * = p < 0.01. The protocol:
as §1

Bridge positions count the residues as written; N and C are the ends. Peptide text beside a SMILES is read from it.

As for `C[C@H](N)C(=O)NCC(=O)N[C@H]1CSSC[C@@H](C(=O)O)NC(=O)[C@H](CO)NC(=O)[C@H]([C@@H](C)O)NC(=O)[C@H](Cc2ccccc2)NC(=O)[C@H]([C@@H](C)O)NC(=O)[C@H](CCCCN)NC(=O)[C@H](Cc2c[nH]c3ccccc23)NC(=O)[C@H](Cc2ccccc2)NC(=O)[C@H](Cc2ccccc2)NC(=O)[C@H](Cc2c[nH]cn2)NC(=O)[C@H](CCCCN)NC1=O` [(His^5)SRIF, L-Alanyl-glycyl-L-cysteinyl-lysyl-L-histidyl-L-phenylalanyl-L-phenylalanyl-L-tryptophyl-L-lysyl-L-threonyl-L-phenylalanyl-L-threonyl-L-seryl-L-cysteine(3-14 cyclic)disulfide] (H-AGCKHFFWKTFTSC-OH; disulfide 3-14), in the assay with growth hormone (1300 ug/kg subcutaneous), the GH worked out at 83 ± 15 ng/mL. Further, the “reducing secretion of growth hormone (in words)” value in the assay on growth hormone (summary of rat assay) is given as “effective agent for reducing secretion of growth hormone”. In addition, the Insulin in the assay on insulin (1300 ug/kg subcutaneous) worked out at 390 ± 94 μU/ml. Besides, the “effect on insulin levels (in words)” value in the assay on insulin (summary of rat assay) is reported as “without materially affecting insulin levels”. Besides, the Glucagon in the assay with glucagon (1300 ug/kg subcutaneous) turned out to be 31 ± 6 pg/mL. Besides, the “reducing secretion of glucagon (in words)” value in the assay with glucagon (summary of rat assay) is “effective agent for reducing secretion of growth hormone and glucagon”.
In the assay with growth hormone (200 ug/kg subcutaneous), `C[C@H](N)C(=O)NCC(=O)N[C@H]1CSSC[C@@H](C(=O)O)NC(=O)[C@H](CO)NC(=O)[C@H]([C@@H](C)O)NC(=O)[C@H](Cc2ccccc2)NC(=O)[C@H]([C@@H](C)O)NC(=O)[C@H](CCCCN)NC(=O)[C@H](Cc2c[nH]c3ccccc23)NC(=O)[C@H](Cc2ccccc2)NC(=O)[C@H](Cc2ccccc2)NC(=O)[C@H](CC(N)=O)NC(=O)[C@H](CCCCN)NC1=O` [SRIF, reference compound] displayed a GH of 66 ± 11 ng/mL. For the same compound, the Insulin with insulin (200 ug/kg subcutaneous, + = p < 0.05) was determined as 232 ± 23 μU/ml. In the assay on glucagon (200 ug/kg subcutaneous), the Glucagon came to 26 ± 6 pg/mL.
